# Test results reported in patent publication US7585885B2, “Pyrrolidine derivatives useful as BACE inhibitors” (Eli Lilly and Company, priority 2004, dated 2009).
# Where a name gives a salt, the structure may show the parent alone.
# What was measured:
# human BACE1 (1-460):Fc = biological target: T1, human BACE1 (1-460):Fc (Homo sapiens, UniProt P56817); test: BACE1 mcaFRET Assay; format: biochemical; details: FRET substrate 15 micromolar, pH 4.6, room temperature 16 to 24 hours
# T1 construct: made in house; host or cells: HEK293 (transient transfection, purified from conditioned media on Protein A-agarose)
# Protocol: (§1) For in vitro enzymatic and cellular assays, test compounds are prepared in DMSO to make up a 10 millimolar stock solution. The stock solution is serially diluted (in a 1:3, 1:2.5, 1:2, or 1:1 dilution series) in DMSO to obtain a final compound concentration of 10 millimolar to 1 micromolar at the first highest concentration of a ten-point dilution curve in a 96-well round-bottom plate right before conducting the in vitro enzymatic and whole assays.
# Serial dilutions of test compounds are prepared as described above. Two microliter of each dilution is added to each well on row A to H of a corresponding low protein binding black plate to which 50 microliter of 50 millimolar ammonium acetate, pH 4.6, 1 mM Triton X-100, 1 mg/ml Bovine Serum Albumin, and 15 micromolar of FRET substrate (sequence: (MCA)-S-E-V-N-L-D-A-E-F-R-K(Dnp)-R-R-R-R-NH2) for BACE1 activity are pre-added. The content is mixed well on a plate shaker for 10 min. Fifty microliter of two hundred picomolar human BACE1 (1-460):Fc (See: Vasser, et al., Science, 286, 735-741 (1999)) in the same reaction buffer described above is added to the plate containing substrate and test compounds to initiate the reaction. The relative fluorescence unit (RFU) of the mixture at time 0 is recorded at excitation wavelength 330 nm and emission wavelength 400 nm, after brief mixing on a plate shaker. The reaction plate is covered with aluminum foil and kept in a dark humidified oven at room temperature for 16 to 24 hours. The RFU at the end of incubation is recorded with the same excitation and emission setting. The difference of the RFU at time 0 and the end of incubation represents the activity of BACE1 under the compound treatment. The 10-point inhibition curve was plotted and fitted with the four-parameter logistic equation to obtain the EC50 and IC50 values. (See: Sinha, et al., Nature, 402, 537-540 (2000)). […] Data for selected compounds of the invention tested in this assay are contained in the following table.
# Both human (accession number: AF190725) and murine (accession number: NM_011792) BACE1 were cloned from total brain cDNA by […]. The nucleotide sequences corresponding to amino acid sequences #1 to 460 were inserted into the cDNA encoding human IgG1 (Fc) polypeptide (Vassar et al. 1999). This fusion protein of BACE1 (1-460) and human Fc, named huBACE1:Fc, was constructed into the pJB02 vector. Human BACE1(1-460):Fc (huBACE1:Fc) and murine BACE1(1-460):Fc (muBACE1:Fc) were transiently expressed in HEK293 cells. 250 μg cDNA of each construct was mixed with Fugene 6 and added to 1 liter HEK293 cells. Four days after the transfection, conditioned media were harvested for purification.
# Conditioned media of HEK293 cell transiently transfected with huBACE1:Fc or muBACE1:Fc cDNA were collected. Cell debris was removed by filtering the conditioned media through 0.22 μm sterile filter. 5 ml Protein A-agarose (bed volume) was added to 4 liter conditioned media. This mixture was gently stirred overnight at 4° C. The Protein A-agarose resin was collected and packed into a low-pressure chromatography column. The column washed with 20× bed volumes of PBS at flow rate 20 ml per hour. Bound huBACE1:Fc or muBACE1:Fc protein was eluted with 50 mM acetic acid, pH 3.6, at flow rate 20 ml per hour. 1 ml fractions of eluate were neutralized immediately with 0.5 ml 200 mM ammonium acetate, pH 6.5. The purity of final product was assessed by electrophoresis in 4-20% Tris-Glycine SDS-PAGE. The enzyme was stored at −80 C in small aliquots.
# beta-secretase activity = biological target: T2, beta-secretase activity (Homo sapiens, UniProt P56817); test: Whole cell assay for measuring the inhibition of beta-secretase activity; format: cell-based; details: HEK293/APP751sw or HEK293/APP751wt cells, 37 C for 4 to 6 hours, sandwich ELISA of conditioned media; read-out: IC50 (Abeta, sAPPbeta-lowering effect)
# T2 construct: endogenous in cells; host or cells: HEK293p (ATCC CRL-1573) stably expressing human APP751sw or APP751wt
# Protocol: as §1
# The routine whole cell assay for the measurement of inhibition of beta-secretase activity utilizes the human embryonic kidney cell line HEK293p (ATCC Accession No. CRL-1573) stably expressing a human APP751 cDNA containing the naturally occurring double mutation […] to Asn651Leu652, commonly called the Swedish mutation (noted HEK293/APP751sw) and shown to overproduce Abeta (Citron et al., 1992, Nature 360:672-674). Human embryonic kidney HEK293p cells stably expressing wild-type human APP751 cDNA (noted HEK293/APP751 wt) are also used to assess the inhibition of beta-secretase activity. In vitro Aβ reduction assays have been described in the literature (See: Dovey, et al., Journal of Neurochemistry, 76, 173-181 (2001); Seubert, et al., Nature, 361, 260 (1993); and Johnson-Wood, et al., Proc. Natl. Acad. Sci. USA, 94, 1550-1555 (1997))
# Cells (HEK293/APP751sw or HEK293/APP751wt, at 3×10^4 cells/well, containing 200 microliters culture media, DMEM containing 10% FBS) are incubated at 37 C for 4 to 6 hours in the presence/absence of inhibitors (diluted in DMSO) at the desired concentration. At the end of the incubation, conditioned media are analyzed for beta-secretase activity, for example, by analysis of cleavage fragments, Abeta peptide and sAPPbeta. Abeta peptides are measured by a sandwich ELISA, using monoclonal 266 as a capture antibody and biotinylated 3D6 as reporting antibody. The sAPPbeta fragments are analyzed by a sandwich ELISA, using monoclonal 8E5 antibody as a capture antibody and rabbit polyclonal 192sw or 192wt as a reporting antibody. Note that sAPPbeta is the cleavage product of full length APP by BACE1. The concentration of sAPPbeta released in the conditioned media following the compound treatment corresponds to the activity of BACE1 under such conditions. The 10-point inhibition curve was plotted and fitted with the four-parameter logistic equation to obtain the EC50 and IC50 values for the Abeta, sAPPbeta-lowering effect. Data for selected compounds of the invention tested in this assay are contained in the following table.
# T1 sequence (P56817 22-460): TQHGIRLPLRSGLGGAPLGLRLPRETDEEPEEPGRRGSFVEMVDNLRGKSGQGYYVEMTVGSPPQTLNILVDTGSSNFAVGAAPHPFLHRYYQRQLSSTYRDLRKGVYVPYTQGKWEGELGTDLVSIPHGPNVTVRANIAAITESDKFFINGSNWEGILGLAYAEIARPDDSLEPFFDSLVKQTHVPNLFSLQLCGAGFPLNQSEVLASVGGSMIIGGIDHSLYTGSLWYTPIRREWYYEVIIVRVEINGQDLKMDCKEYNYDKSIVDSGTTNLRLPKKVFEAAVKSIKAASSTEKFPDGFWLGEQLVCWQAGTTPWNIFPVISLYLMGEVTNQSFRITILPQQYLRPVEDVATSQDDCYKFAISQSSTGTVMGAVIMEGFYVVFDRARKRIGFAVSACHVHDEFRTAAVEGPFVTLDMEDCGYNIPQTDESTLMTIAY
# T2 sequence (P56817 46-501): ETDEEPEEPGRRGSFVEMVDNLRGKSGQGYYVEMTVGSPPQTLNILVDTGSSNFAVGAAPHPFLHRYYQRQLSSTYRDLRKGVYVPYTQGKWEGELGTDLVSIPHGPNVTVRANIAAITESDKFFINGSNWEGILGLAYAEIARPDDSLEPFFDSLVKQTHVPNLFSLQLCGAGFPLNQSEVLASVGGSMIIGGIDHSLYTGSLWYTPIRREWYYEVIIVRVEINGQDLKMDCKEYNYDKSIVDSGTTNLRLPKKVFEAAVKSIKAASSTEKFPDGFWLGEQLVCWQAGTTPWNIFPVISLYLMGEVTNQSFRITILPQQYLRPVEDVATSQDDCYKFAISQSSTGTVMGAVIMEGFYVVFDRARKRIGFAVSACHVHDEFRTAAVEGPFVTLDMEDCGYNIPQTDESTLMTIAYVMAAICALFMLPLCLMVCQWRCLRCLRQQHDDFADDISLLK
SMILES,IC50 (human BACE1 (1-460):Fc) [nM],IC50 (beta-secretase activity) [nM]
"CCC(C)Nc1cc(C(=O)NC(Cc2ccccc2)C(O)C2CC(F)CN2)cc(N(C)S(C)(=O)=O)n1 [Example 7, N-[1-(S)-Benzyl-2-(R)-(4-(S)-fluoropyrrolidin-2-yl)-2-(R)-hydroxyethyl]-2-(S)-sec-butylamino-6-(methanesulfonyl-methylamino)-isonicotinamide bishydrochloride]",3.9,13
"CC(=O)N[C@@H](Cc1cc(F)cc(F)c1)[C@H](O)[C@H]1C[C@@H](CC(=O)N2CCCCC2)CN1 [Example 33, N-{(1S,2R)-1-(3,5-Difluoro-benzyl)-2-hydroxy-2-[(2R,4S)-4-(2-oxo-2-piperidin-1-yl-ethyl)-pyrrolidin-2-yl]-ethyl}-acetamide hydrochloride]",820,14300
"CC(=O)N[C@@H](Cc1cc(F)cc(F)c1)[C@H](O)[C@H]1C[C@@H](CC(=O)N2CCCCCC2)CN1 [Example 41, N-[(1S,2R)-2-[(2R,4S)-4-(2-Azepan-1-yl-2-oxo-ethyl)-pyrrolidin-2-yl]-1-(3,5-difluoro-benzyl)-2-hydroxy-ethyl]-acetamide hydrochloride]",380,6070

# Continued by falling IC50 (human BACE1 (1-460):Fc), values first:
IC50 (human BACE1 (1-460):Fc) [nM],IC50 (beta-secretase activity) [nM],SMILES
5200,–,"CC(=O)N[C@@H](Cc1cc(F)cc(F)c1)[C@H](O)[C@H]1C[C@@H](CC(=O)N(C)C)CN1 [Example 37, 2-{(3S,5R)-5-[(1R,2S)-2-Acetylamino-3-(3,5-difluoro-phenyl)-1-hydroxy-propyl]-pyrrolidin-3-yl}-N,N-dimethyl-acetamide hydrochloride]"
2300,–,"CC(=O)N[C@@H](Cc1cc(F)cc(F)c1)[C@H](O)[C@H]1C[C@@H](OCCC2CCCCC2)CN1 [Example 60, N-[(1S,2R)-2-[(2R,4R)-4-(2-Cyclohexyl-ethoxy)-pyrrolidin-2-yl]-1-(3,5-difluoro-benzyl)-2-hydroxy-ethyl]-acetamide hydrochloride]"
1400,–,"CC(=O)N[C@@H](Cc1cc(F)cc(F)c1)[C@H](O)[C@H]1C[C@@H](CC(=O)N2CCOCC2)CN1 [Example 35, N-{(1S,2R)-1-(3,5-Difluoro-benzyl)-2-hydroxy-2-[(2R,4S)-4-(2-morpholin-4-yl-2-oxo-ethyl)-pyrrolidin-2-yl]-ethyl}-acetamide hydrochloride]"
1.8,15,"CCC(C)Nc1cc(C(=O)NC(Cc2ccccc2)C(O)C2CCCN2)cc(N(C)S(C)(=O)=O)n1 [Example 12, N-((1S,2R)-1-Benzyl-2-hydroxy-2-(R)-pyrrolidin-2-ylethyl)-2-(S)-sec-butylamino-6-(methanesulfonyl-methylamino)-isonicotinamide hydrochloride]"
